Laboratory results as given in patent US11833137B2, “Substituted chromenones, IRE1 inhibitors, and methods of using same” (The Wistar Institute, priority 2018, dated 2023).
Entries after “also recorded” stand apart in the source; their conditions may differ.

Tests used:
[1] = tested on: XBP-1s expression, 5TGM1 cells; assay: XBP-1s immunoblot in 5TGM1 multiple myeloma cells; format: cell-based, mouse
Experimental: 5TGM1 mouse multiple myeloma cells, primary mouse B cells, primary mouse Eμ-TCL1 CLL cells, and human CLL cell lines (MEC2 and WaC3) were cultured at 37° C. in a 5% CO2 incubator using RPMI 1640 media (Gibco) supplemented with 10% heat-inactivated FBS, 2 mM L-glutamine, 100 U/mL penicillin G sodium, 1 mM sodium pyruvate, 0.1 mM non-essential amino acids, 100 μg/mL streptomycin sulfate and 0.1 mM β-mercaptoethanol (β-ME).
Cells were lysed using RIPA buffer (10 mM Tris-HCl, pH 7.4, 150 mM NaCl, 1% NP-40, 0.5% sodium deoxycholate, 0.1% SDS, and 1 mM EDTA) supplemented with protease inhibitors (Roche). Protein concentrations were determined by BCA assays (Pierce).
Samples were boiled in SDS-PAGE sample buffer (62.5 mM Tris-HCl, pH 6.8, 2% SDS, 10% glycerol, 0.1% bromophenol blue) with β-ME and analyzed by SDS-PAGE. Proteins were transferred to nitrocellulose membranes, blocked in 5% nonfat milk (wt/vol in PBS), and immunoblotted with indicated primary antibodies and appropriate horseradish peroxidase-conjugated secondary antibodies. Immunoblots were developed using Western Lighting Chemiluminescence Reagent (PerkinElmer).
To develop inhibitors with improved potency to target the IRE1/XBP-1 pathway, tricyclic chromenone-based IRE1 RNase inhibitors with different amine group (R^1) were synthesized and compared: allyloxycarbonyl (alloc) in B-H09 (1), —H in C-B06 (2), and —CH3 in C-D06 (3) (FIG. 1A). 5TGM1 multiple myeloma cells were chosen to evaluate inhibitory effects of these inhibitors because they have constitutively activated IRE1/XBP-1 pathways.

[2] = tested on: XBP-1s expression, MEC2 cells; assay: XBP-1s immunoblot in MEC2 cells; format: cell-based, human; conditions: 20 μM 16 h, then hydrogen peroxide 4 h
Experimental: (§1) FIGS. 5A-5J illustrate the finding that installation of a boronate cage cleavable by H2O2 stabilizes the 1,3-dioxane acetal protective group of D-F07 to allow for temporal inhibition of XBP-1s upon contact with H2O2. (FIG. 5A) A scheme showing that installation of a boronate-caged group stabilizes the 1,3-dioxane acetal protective group to allow for H2O2-mediated release of intact D-F07. (FIG. 5B) The fluorescence of BC-D-F07a (2.5 μM in the DMSO/PBS solution (v/v=1:99), Ex=360 nm) increases upon incubation with 0 to 200 μM hydrogen peroxide at room temperature for 1 h. (FIG. 5C) The fluorescence of BC-D-F07b (2.5 μM in the DMSO/PBS solution (v/v=1:99), Ex=360 nm) increases upon incubation with 0 to 2 mM hydrogen peroxide at 37° C. for 1 h. […] I0 was the initial fluorescence intensity of D-F07, BC-D-F07a or BC-D-F07b at 0 h. (FIG. 5E) The levels of hydrogen peroxide produced by 5TGM1, 72-h LPS-stimulated primary CLL, MEC2, and WaC3 cells were measured by Amplex Red with or without the addition of extracellular catalase (500 U/mL). (FIG. 5F) 5TGM1 cells were treated with BC-D-F07a at increasing concentrations for 24 h, lysed, and analyzed for the expression of indicated proteins by immunoblots. […] Cells were lysed and analyzed for the expression of indicated proteins by immunoblots. […] Cells were lysed and analyzed for the expression of indicated proteins by immunoblots. […]

[3] = Fluorescence stability (decomposition) in aqueous solution; format: physicochemical; conditions: aqueous solution, 37° C., 0 to 48 h, versus D-F07
Experimental: (FIG. 2B) 5TGM1 cells were treated with DMSO or with 20 μM 2, 4, 3, or 7 dissolved in DMSO for 3 days and subjected to XTT assays. Percentages of growth were determined by comparing treated groups with control groups (DMSO). Each data point derived from four independent groups receiving exactly the same treatment was plotted as mean±SD. Results are representative of three independent experiments. […] The values of I/I0 were plotted as a function of time and shown in the inset. I0 was the initial fluorescence intensity of 4 at 0 h. […] The values of I/I0 were plotted as a function of time and shown in the inset. I0 was the initial fluorescence intensity of 5 at 0 h. […] (FIG. 2G) The decomposition rates of 7 and 8 were plotted as a function of time in RPMI media incubated at 37° C. Aliquots were analyzed by HPLC and the peaks integrated.
FIGS. 5A-5J illustrate the finding that installation of a boronate cage cleavable by H2O2 stabilizes the 1,3-dioxane acetal protective group of D-F07 to allow for temporal inhibition of XBP-1s upon contact with H2O2. (FIG. 5A) A scheme showing that installation of a boronate-caged group stabilizes the 1,3-dioxane acetal protective group to allow for H2O2-mediated release of intact D-F07. (FIG. 5B) The fluorescence of BC-D-F07a (2.5 μM in the DMSO/PBS solution (v/v=1:99), Ex=360 nm) increases upon incubation with 0 to 200 μM hydrogen peroxide at room temperature for 1 h. (FIG. 5C) The fluorescence of BC-D-F07b (2.5 μM in the DMSO/PBS solution (v/v=1:99), Ex=360 nm) increases upon incubation with 0 to 2 mM hydrogen peroxide at 37° C. for 1 h. […] I0 was the initial fluorescence intensity of D-F07, BC-D-F07a or BC-D-F07b at 0 h. (FIG. 5E) The levels of hydrogen peroxide produced by 5TGM1, 72-h LPS-stimulated primary CLL, MEC2, and WaC3 cells were measured by Amplex Red with or without the addition of extracellular catalase (500 U/mL). (FIG. 5F) 5TGM1 cells were treated with BC-D-F07a at increasing concentrations for 24 h, lysed, and analyzed for the expression of indicated proteins by immunoblots. (FIG. 5G) CD5+ CLL cells purified from spleens of Eμ-TCL1 mice were stimulated with […], subsequently treated with BC-D-F07a at 20 μM for 16 h, and then incubated with hydrogen peroxide at indicated concentrations for another 4 h. Cells were lysed and analyzed for the expression of indicated proteins by immunoblots. […] Cells were lysed and analyzed for the expression of indicated proteins by immunoblots. […] Percentages of growth were determined by comparing treated groups with control groups (DMSO). […]
UV-vis and fluorescence spectra were carried out on a BioTek SYNERGY™ NEO2 instrument (96 well plate).

[4] = tested on: XBP-1s expression, CD5+ CLL cells from Eμ-TCL1 mice; assay: XBP-1s immunoblot in primary CLL cells; format: cell-based, mouse; conditions: LPS-stimulated, 20 μM 16 h, then 0, 50 or 100 μM hydrogen peroxide 4 h
Experimental: as §1

[5] = tested on: MEC2 cells; assay: Cell proliferation XTT assay, MEC2; format: cell-based, human
[6] = tested on: 5TGM1 cells; assay: Cell proliferation XTT assay, 5TGM1; format: cell-based, mouse
Experimental: 5TGM1 cells were suspended in phenol red-free RPMI media, seeded in 96-well cell culture plates, and treated with indicated IRE1 inhibitors (20 μM, unless indicated otherwise). At indicated time points, cells were spun down and cell proliferation was assessed by XTT assays (Roche) according to the manufacturer's instructions. Briefly, 50 μl XTT labeling reagent, 1 μl electron-coupling reagent, and 100 μl phenol red-free RPMI media were combined and applied to each well of the 96-well plates. Cells were incubated for 4 h in a CO2 incubator to allow for the yellow tetrazolium salt XTT to be cleaved by mitochondrial dehydrogenases of metabolically active cells to form the orange formazan dye, which can be quantified at 492 nm using a BioTek SYNERGY™ NEO2 Multimode Reader.

[7] = tested on: WaC3 cells; assay: Cell proliferation XTT assay, WaC3; format: cell-based, human; conditions: 20 μM for a course of 3 days
[8] = In vivo pharmacokinetics, serum fluorescence; set-up: species or system Eμ-TCL1 mouse; conditions: single intraperitoneal injection of 58 mg/kg D-F07
Experimental: In vivo pharmacokinetics studies were carried out by intraperitoneally injecting 58 mg/kg D-F07 (347.36 Daltons) or 96 mg/kg TC-D-F07 (577.52 Daltons) into each Eμ-TCL1 mouse to achieve equivalent molar concentrations in the sera. Blood was collected via submandibular bleeding into an Eppendorf tube at 0.25-, 0.5-, 1-, and 1.5-h time points after a single injection. Blood samples were stored at room temperature for 5 min, placed on wet ice for 5 min, and centrifuged at 15,000 rpm/min for 5 min to obtain sera. D-F07 in sera was quantified by measuring the fluorescence intensity using a BioTek SYNERGY™ NEO2 Multimode Reader (Ex/Em: 350/456 nm). Each fluorescent reading value was adjusted by subtracting the background from serum samples without D-F07. D-F07 concentrations were calculated by fitting individual data points in a linear standard equation, y=bx+c. The D-F07 standard curve was created by measuring the fluorescence intensity in serum samples containing serially diluted D-F07. Data derived from three mice receiving the same treatment were plotted as means±SEM.

| peak serum concentration [8] [ng/mL] | Structure (SMILES) | suppression of XBP-1s ([1]; increasing concentrations, 24 h) | suppression of XBP-1s [2] | hydrolysis of 1,3-dioxane acetal by fluorescence decay [3] | suppression of XBP-1s expression [4] | growth inhibition (XTT) ([5]; 20 μM for 2 days) | growth suppression (XTT) ([6]; 20 μM for 2 days) | suppression of XBP-1s after removal of compound from media ([1]; 10 μM 4 h, washed, UV 10 min, 8 h culture) | suppression of XBP-1s expression, long term ([1]; 10 μM for a course of 3 days) | overall comparison of inhibition of IRE-1 / XBP-1s expression in whole cells ([1]; summary statement) | growth suppression (XTT) [7] | cytotoxicity / growth inhibition (XTT) ([5]; indicated concentrations, 24 h) | growth inhibition / cytotoxicity (XTT) ([6]; 20 μM for a course of 3 days) |
| --- | --- | --- | --- | --- | --- | --- | --- | --- | --- | --- | --- | --- | --- |
| – | COc1cc2c3c(c(=O)oc2c(C2OCCCO2)c1OCc1ccc(B2OC(C)(C)C(C)(C)O2)cc1)CN(C)CC3 [BC-D-F07a, 7-(1,3-dioxan-2-yl)-9-methoxy-3-methyl-8-((4-(4,4,5,5-tetramethyl-1,3,2-dioxaborolan-2-yl)benzyl)oxy)-1,2,3,4-tetrahydro-5H-chromeno[3,4-c]pyridin-5-one] | dose-dependent suppression of XBP-1s | more efficient suppression of XBP-1s | stabilized the 1,3-dioxane acetal protecting group | suppress the expression of XBP-1s | less capable than D-F07 in inhibiting growth of MEC2 cells | could not efficiently oxidize BC-D-F07a, inhibit XBP-1s, or suppress cell growth | – | – | – | – | – | – |
| 10203 | COc1cc2c3c(c(=O)oc2c(C2OCCCO2)c1O)CN(C)CC3 [D-F07, 7-(1,3-dioxan-2-yl)-8-hydroxy-9-methoxy-3-methyl-1,2,3,4-tetrahydro-5H-chromeno[3,4-c]pyridin-5-one] | – | – | – | – | – | – | failed to suppress XBP-1s continuously | better long-term efficacy in suppressing the expression of XBP-1s than 7 and 10 | most potent effect in inhibiting the expression of XBP-1s in whole cells | initially more potent than 7 and 8 in suppressing WaC3 cell growth; also recorded: suppressed WaC3 cell growth potently | not cytotoxic to MEC2 cells | higher cytotoxicity than 3 and 7 |
